Measured values reported in PubChem BioAssay AID330 (DTP/NCI, 2004).
“And” between values parts separate entries of the source, which are not always exact repeats. Equal entries are not always repeated. Structures can show the parent of a compound that is named as a salt. Toxic doses and inconclusive results are not listed. Rule for the calls: active = survival T/C of 150% or more; inactive = T/C below 125% in these data. Peptide text beside a SMILES is read from it. * marks the point of attachment. Tfa = O=C(C(F)(F)F)*

Tested on: P388 leukemia ip, CD2F1 mice, survival T/C
Assay: NCI In Vivo Anticancer Drug Screen. Data for tumor model P388 Leukemia (intraperitoneal) in CD2F1 (CDF1) mice
Conditions: endpoint: median survival time, higher = longer survival
Outline: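 Mice carrying the transplanted tumor received test compound or vehicle. Survival was recorded in each group, and the value is the treated-group measurement divided by that of the vehicle-treated control group.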

[1] = dose: 50.0 mg/kg/injection, schedule: Q01DX009 (ip), vehicle: saline
[2] = dose: 100.0 mg/kg/injection, schedule: Q01DX009 (ip), vehicle: saline
[3] = dose: 200.0 mg/kg/injection, schedule: Q01DX009 (ip), vehicle: saline
[4] = dose: 50.0 mg/kg/injection, schedule: Q01DX009 (ip), vehicle: saline with Tween-80
[5] = dose: 100.0 mg/kg/injection, schedule: Q04DX003 (ip), vehicle: Klucel (hydroxypropylcellulose) (HPC)
[6] = dose: 200.0 mg/kg/injection, schedule: Q04DX003 (ip), vehicle: Klucel (hydroxypropylcellulose) (HPC)
[7] = dose: 400.0 mg/kg/injection, schedule: Q04DX003 (ip), vehicle: Klucel (hydroxypropylcellulose) (HPC)
[8] = dose: 50.0 mg/kg/injection, schedule: Q01DX001 (ip), vehicle: Klucel (hydroxypropylcellulose) (HPC)
[9] = dose: 50.0 mg/kg/injection, schedule: Q01DX005 (ip), vehicle: saline with Tween-80
[10] = dose: 100.0 mg/kg/injection, schedule: Q01DX005 (ip), vehicle: saline with Tween-80
[11] = dose: 200.0 mg/kg/injection, schedule: Q01DX005 (ip), vehicle: saline with Tween-80
[12] = dose: 100.0 mg/kg/injection, schedule: Q01DX001 (ip), vehicle: saline with Tween-80
[13] = dose: 200.0 mg/kg/injection, schedule: Q01DX001 (ip), vehicle: saline with Tween-80
[14] = dose: 400.0 mg/kg/injection, schedule: Q01DX001 (ip), vehicle: saline with Tween-80
[15] = dose: 12.5 mg/kg/injection, schedule: Q01DX001 (ip), vehicle: saline with Tween-80
[16] = dose: 25.0 mg/kg/injection, schedule: Q01DX001 (ip), vehicle: saline with Tween-80
[17] = dose: 50.0 mg/kg/injection, schedule: Q01DX001 (ip), vehicle: saline with Tween-80
[18] = dose: 60.0 mg/kg/injection, schedule: Q01DX005 (ip), vehicle: Klucel (hydroxypropylcellulose) (HPC)
[19] = dose: 120.0 mg/kg/injection, schedule: Q01DX005 (ip), vehicle: Klucel (hydroxypropylcellulose) (HPC)

Measured: T/C

C=C(C)C(=O)NC(Cc1cnc[nH]1)C(=O)O (stereo not drawn)
inactive: [1] 106 % of control | [2] 107 % of control | [3] 107 % of control

c1ccc(-n2nc3c(c2-c2ccncc2)CCCc2ccccc2-3)cc1
inactive: dose: 12.5 mg/kg/injection, schedule: Q01DX009 (ip), vehicle: other 96 % of control | dose: 25.0 mg/kg/injection, schedule: Q01DX009 (ip), vehicle: other 98 % of control | dose: 50.0 mg/kg/injection, schedule: Q01DX009 (ip), vehicle: other 120 % of control | dose: 100.0 mg/kg/injection, schedule: Q01DX009 (ip), vehicle: other 110 % of control | dose: 200.0 mg/kg/injection, schedule: Q01DX009 (ip), vehicle: other 96 % of control

CCOc1ccc(-n2c(=O)c(N=Nc3ccccc3Cl)c(O)n(-c3ccc(Br)cc3)c2=S)cc1
inactive: dose: 100.0 mg/kg/injection, schedule: Q04DX002 (ip), vehicle: saline with Tween-80 90 % of control | dose: 200.0 mg/kg/injection, schedule: Q04DX002 (ip), vehicle: saline with Tween-80 94 % of control | dose: 400.0 mg/kg/injection, schedule: Q04DX002 (ip), vehicle: saline with Tween-80 87 % of control

CC1(C)COC(=O)C(C(=O)O)=C1C(=O)O
inactive: [4] 90 % of control | dose: 100.0 mg/kg/injection, schedule: Q01DX009 (ip), vehicle: saline with Tween-80 87 % of control | dose: 200.0 mg/kg/injection, schedule: Q01DX009 (ip), vehicle: saline with Tween-80 90 % of control

COC1CC(O)OC1C(NC(C)=O)SC12CC3CC(CC(C3)C1)C2 (stereo not drawn)
inactive: [5] 104 % of control | [6] 106 % of control | [7] 104 % of control

O=c1oc2cccc(O)c2s1
inactive: dose: 12.5 mg/kg/injection, schedule: Q01DX001 (ip), vehicle: saline 97 % of control | dose: 25.0 mg/kg/injection, schedule: Q01DX001 (ip), vehicle: saline 99 % of control | [8] 106 % of control | dose: 50.0 mg/kg/injection, schedule: Q01DX001 (ip), vehicle: saline 98 % of control

OCN(CO)c1nc(N(CO)CO)nc(N(CO)CO)n1
inactive: dose: 6.3 mg/kg/injection, schedule: Q01DX009 (ip), vehicle: saline with Tween-80 109 % of control | dose: 12.5 mg/kg/injection, schedule: Q01DX009 (ip), vehicle: saline with Tween-80 106 % of control | [4] 108 % of control

CC(=O)NC1=NN(C(C)=O)C(C)(c2ccccc2)S1=O (stereo not drawn)
inactive: [9] 103 % of control | [10] 107 % of control | [11] 101 % of control

S=C1N(c2ccc(Br)cc2)C2=Nc3ccccc3SC(=C2N=Nc2ccc(Br)cc2)N1c1ccc(Cl)cc1
inactive: [9] 93 % of control | [10] 86 % of control | [11] 91 % of control

OCc1cnccc1Cl
inactive: dose: 60.0 mg/kg/injection, schedule: Q01DX005 (ip), vehicle: saline 95 % of control | dose: 120.0 mg/kg/injection, schedule: Q01DX005 (ip), vehicle: saline 100 % of control

C/C(=N/NC(=O)c1ccccc1)C(=O)OC(=NC1CCCCC1)NC1CCCCC1
inactive: dose: 100.0 mg/kg/injection, schedule: Q04DX002 (ip), vehicle: Klucel (hydroxypropylcellulose) (HPC) 99 % of control | dose: 200.0 mg/kg/injection, schedule: Q04DX002 (ip), vehicle: Klucel (hydroxypropylcellulose) (HPC) 95 % of control | dose: 400.0 mg/kg/injection, schedule: Q04DX002 (ip), vehicle: Klucel (hydroxypropylcellulose) (HPC) 96 % of control

CC(=O)Nc1ccc(C(=O)CN(Cc2ccccc2)Cc2ccccc2)cc1
inactive: dose: 50.0 mg/kg/injection, schedule: Q01DX005 (ip), vehicle: Klucel (hydroxypropylcellulose) (HPC) 87 % of control | dose: 100.0 mg/kg/injection, schedule: Q01DX005 (ip), vehicle: Klucel (hydroxypropylcellulose) (HPC) 87 % of control

COC(=O)C1(CC(=O)c2ccc(Cl)c(Cl)c2)NC(=S)NC(=O)C1C#N (stereo not drawn)
inactive: dose: 60.0 mg/kg/injection, schedule: Q01DX005 (ip), vehicle: saline with Tween-80 106 % of control | dose: 120.0 mg/kg/injection, schedule: Q01DX005 (ip), vehicle: saline with Tween-80 97 % of control | dose: 240.0 mg/kg/injection, schedule: Q01DX005 (ip), vehicle: saline with Tween-80 96 % of control

CCCCNC(=O)Oc1ccc(OCc2ccccc2)cc1
inactive: dose: 100.0 mg/kg/injection, schedule: Q04DX003 (ip), vehicle: saline with Tween-80 100 % of control | dose: 200.0 mg/kg/injection, schedule: Q04DX003 (ip), vehicle: saline with Tween-80 95 % of control | dose: 400.0 mg/kg/injection, schedule: Q04DX003 (ip), vehicle: saline with Tween-80 90 % of control

N#Cc1nnc2cccc(Cl)n12
inactive: dose: 25.0 mg/kg/injection, schedule: Q01DX001 (ip), vehicle: Klucel (hydroxypropylcellulose) (HPC) 96 % of control | [8] 95 % of control | dose: 100.0 mg/kg/injection, schedule: Q01DX001 (ip), vehicle: Klucel (hydroxypropylcellulose) (HPC) 97 % of control

CC(CCN(C)C)N(C)C (stereo not drawn)
inactive: dose: 50.0 mg/kg/injection, schedule: Q01DX005 (ip), vehicle: suspension in saline 106 % of control | dose: 100.0 mg/kg/injection, schedule: Q01DX005 (ip), vehicle: suspension in saline 98 % of control

COC(=O)c1cccc2c(=O)c(CCl)c(-c3ccccc3)sc12
inactive: [12] 93 % of control | [13] 91 % of control | [14] 91 % of control

O=C(Nc1ccc(Br)cc1)c1ccc(Cl)c(Cl)c1
inactive: dose: 100.0 mg/kg/injection, schedule: Q01DX009 (ip), vehicle: Klucel (hydroxypropylcellulose) (HPC) 116 % of control | dose: 200.0 mg/kg/injection, schedule: Q01DX009 (ip), vehicle: Klucel (hydroxypropylcellulose) (HPC) 119 % of control | dose: 400.0 mg/kg/injection, schedule: Q01DX009 (ip), vehicle: Klucel (hydroxypropylcellulose) (HPC) 117 % of control

CCN(CC)C(=S)SCc1cc(C)c(O)c(C)c1
inactive: dose: 100.0 mg/kg/injection, schedule: Q01DX001 (ip), vehicle: saline 98 % of control | dose: 200.0 mg/kg/injection, schedule: Q01DX001 (ip), vehicle: saline 100 % of control | dose: 400.0 mg/kg/injection, schedule: Q01DX001 (ip), vehicle: saline 100 % of control

Cn1c(=O)c2nc(-c3ccc(Cl)c(Cl)c3)c(-c3ccc(Cl)c(Cl)c3)nc2n(C)c1=O
inactive: dose: 3.13 mg/kg/injection, schedule: Q01DX001 (ip), vehicle: saline with Tween-80 100 % of control | dose: 6.25 mg/kg/injection, schedule: Q01DX001 (ip), vehicle: saline with Tween-80 104 % of control | [15] 95 % of control | [16] 96 % of control | [17] 93 % of control | [13] 91 % of control

c1ccc2nc(N=Nc3cnc4ccccc4n3)cnc2c1
inactive: [15] 100 % of control and 93 % of control and 94 % of control | dose: 12.5 mg/kg/injection, schedule: Q01DX005 (ip), vehicle: saline with Tween-80 94 % of control | [16] 99 % of control and 94 % of control | dose: 25.0 mg/kg/injection, schedule: Q01DX005 (ip), vehicle: saline with Tween-80 94 % of control | [17] 100 % of control and 86 % of control and 97 % of control | [9] 97 % of control

CC1CCN(P(=O)(N(C)C)N(C)C)CC1
inactive: [1] 98 % of control | [2] 96 % of control | [3] 88 % of control

Nc1nc(SCC(=O)O)[nH]c(=O)c1NS(=O)(=O)c1ccc([N+](=O)[O-])cc1
inactive: [18] 96 % of control | [19] 98 % of control | dose: 240.0 mg/kg/injection, schedule: Q01DX005 (ip), vehicle: Klucel (hydroxypropylcellulose) (HPC) 102 % of control

Cc1ccc(S(=O)c2ccccc2)c(C(O)(C(F)(F)F)C(F)(F)F)c1 (stereo not drawn)
inactive: [5] 91 % of control | [6] 93 % of control | [7] 94 % of control

COC(=O)CC(NC(=O)C1CCCN1C(=O)C(F)(F)F)C(=O)OC (stereo not drawn) (Tfa-Pro-Asp(OMe)-OMe; configuration not given here)
inactive: [12] 104 % of control | [13] 101 % of control and 100 % of control | [14] 104 % of control

Fc1cccc2c(SCCCCCSc3c4ccccc4nc4c(F)cccc34)c3ccccc3nc12
inactive: [18] 93 % of control | [19] 89 % of control
